Source: patent US20250144032A1, “POLY(BETA-AMINO ESTER) MICROPARTICLES FOR MICRONUTRIENT FORTIFICATION” (Massachusetts Institute of Technology, priority 2021, published 2025)

Assay: Boiling stability of micronutrients in water at 100 °C (simulated cooking)
Format: physicochemical
Method: To evaluate the effects on VA stabilization, VA (10% wt) was encapsulated with MPs fabricated from PAE_C, PAE_D, or PAE_E. The resulting MPs were tested in boiling water for 2 hours.
The boiling stability of micronutrients in PAE MP was studied in water at 100° C. At each time point, samples were lyophilized to obtain the boiled product.
High-performance liquid chromatography (HPLC), inductively coupled plasma-optical emission spectrometer (ICP-OES), and colorimetric assay kits were used for micronutrient quantification.

CCCCCCCCCCCCCCCC(=O)OC/C=C(C)/C=C/C=C(C)/C=C/C1=C(C)CCCC1(C)C [VA, retinyl palmitate]
VA recovered after boiling for 0.5 h: less than 20%
